Where only a bound is given, the exact number is not on record here.

Usually melting point stands for the temperature of the solid-liquid transition.

The compound `CCOC(=O)c1c(-c2ccc(F)cc2)cc(-c2cccc3ccccc23)nc1C(C)C` showed a melting point of 113 to 115 °C.

In turn, `O=C(O)c1cccc(-n2c(=O)c3c(Cc4ccccc4)n[nH]c3c3cccnc32)c1` showed a melting point of 300 to 305 °C.

In turn, `CCn1cc(C(=O)O)c(=O)cc1-c1ccc(O)cc1` yielded a melting point of 243 to 245 °C.

The compound `O=C(CCl)Nc1ccccc1C(=O)c1ccccc1C(F)(F)F` showed a melting point of 79 to 81 °C.

Compound `CC(Cn1cc(Sc2ccccc2)c2ccccc21)N(O)C(N)=O` (centres undefined) gave a melting point of 73 to 76 °C.

In the case of `CCCn1c(=O)c2c(nn3cc(-c4cccc(OC)c4)[nH]c23)n(Cc2ccccc2)c1=O`, the melting point was in the range of 249 to 250 °C.

`COc1cccc(CNC(=O)c2nc3ccc(F)c(OCCc4ccc(-n5cn[nH]c5=O)cc4)c3c(=O)[nH]2)c1` showed a melting point of 196 to 198 °C.

`C=CCN1C(=O)C(C)N(c2ccc(Cc3ccccc3)cc2)C1=S` (centres undefined) displayed a melting point of 62 to 64 °C.

Compound `Cc1nn(C)c(S(N)(=O)=O)c1C(=O)OC(C)C` gave a melting point of 120 to 122 °C.

`c1cc2ncc3c(n2n1)N(C1CCCC1)CC3` displayed a melting point of 181 °C.

Regarding `CCN(CC)CCN1C(=O)C(NC(=O)c2ccccc2)C(C)(C)SC1=S` (centres undefined), the melting point fell in the range of 152 to 153 °C.

With `COc1ccc2sc(Nc3ccc(OCCCl)cc3)nc2c1`, the melting point lay within 176 to 178 °C.

`CCCCSc1cnc2c(c1)CCC(c1ccc(Cl)c(Cl)c1)O2` (centres undefined) had a melting point of 59.5 to 61 °C.

The compound `CCON=C(C(C)=NOCc1ccccc1C(=NOC)C(=O)NC)c1ccc(OC[Si](C)(C)c2ccc(F)cc2)cc1` came in with a melting point of 88 to 90 °C.

The compound `O=C1CCCCC1C(C[N+](=O)[O-])c1ccc(Cl)cc1` (racemic) registered a melting point of 96 to 97 °C.

With `O/N=C(/CCN1CCN(c2ncccn2)CC1)c1ccccc1`, the melting point lay within 175 to 177 °C.

For `COc1cccc(C(=O)N2CCc3cc(OCc4ccccc4)c(OC)cc3C2=O)c1`, the melting point is 141 to 143 °C.

As to `O=C(NN=CC=Cc1ccccc1)c1ccccc1`, the melting point was 192 to 194 °C.

On to `CCC1N=C(c2ccccc2F)c2c(ccc(N=C=O)c2Cl)N(C)C1=O` (centres undefined), for which the melting point was 243 to 244 °C.

With `O=C1Nc2cc(Cl)ccc2Cn2nnnc21`, the melting point was 256 to 259 °C.

With `CNC(=O)c1cc(C)ccc1Nc1nc(Nc2ccc3c(c2)CCN(CCOC)CC3)ncc1Cl`, the melting point was 210 to 212 °C.

On to `Cc1nc2cc(-c3ccnc(-c4cn(C)c(=O)n4-c4ccc(C(C)(C)C#N)cc4)c3)cnc2[nH]1`, for which the melting point was 288 °C.

`COC(=O)c1ccc(-c2nc(COc3ccc(C=O)cc3OC)c(C)o2)cc1`: the melting point was in the range of 185 to 186 °C.

Take `Cc1onc(-c2ccccc2)c1-c1ccc(S(=O)(=O)NC(=O)CC(C)(C)SN=O)cc1`: the melting point fell in the range of 138 to 140 °C.

As to `Cn1c(=O)c(C(=O)O)nc2cc(F)c([N+](=O)[O-])cc21`, the melting point was in the range of 173 to 175 °C.

Compound `NS(=O)(=O)c1ncccc1OCCF` registered a melting point of 122 to 123 °C.

In turn, `S=C1Nc2ccccc2Cn2cccc21` had a melting point of 228 to 231 °C.

Consider `CCCS(=O)(=O)Oc1ccc(-c2c(C)c(C(=O)NN3CCCCC3)nn2-c2ccc(Cl)cc2Cl)cc1`, for which the melting point stood at 190 °C.

Take `Cn1cc(-c2c(-c3ccccc3F)nn3ccncc23)ccc1=O`: the melting point lay within 193 to 194 °C.

On to `Cc1ccc2sc3cc(C(=O)O)ccc3c2c1`, for which the melting point lay within 290 to 291 °C.

The compound `CC1(C)SC(c2ccc(O)cc2)NC1C(=O)O` (centres undefined) registered a melting point of 207 to 209 °C.

`CC(C)[C@H](NC(=O)OC(C)(C)C)C(=O)Nc1c(C(=O)CC(=O)Nc2nccs2)cccc1C(F)(F)F` came in with a melting point of 120 °C.

For `CCOC(=O)c1c(C)nn(C)c1SCc1ccccc1`, the melting point fell in the range of 55 to 56 °C.

In the case of `C=CCNC(=O)CC(=O)C=Cc1ccccc1[N+](=O)[O-]`, the melting point lay within 128 to 129 °C.

In turn, `Clc1ccc(-c2cn3cc(Br)ccc3n2)cc1` gave a melting point of 210 to 211 °C.

With `CC(C)(O)CNC(=O)c1cccc(-c2cccc3cc(Cc4cc(F)cc(Cl)c4)sc23)c1`, the melting point was determined as 123 °C.

Compound `CC(=O)SC1NC(=O)C1C` (centres undefined) gave a melting point of 53 to 65 °C.

Compound `O=C(O)CCCCNC(=O)Cc1ccc2c(c1)CC(NS(=O)(=O)c1ccc(Cl)cc1)C2` (centres undefined) displayed a melting point of 156 to 158 °C.

Turning to `COC(=O)c1ccc(N2CCCC2CO)cc1N` (centres undefined), the melting point was in the range of 113 to 115 °C.

Regarding `O=C(O)C1CCC(c2ccc(Cl)cc2)n2c(=O)n(CCS)c(=O)n21` (centres undefined), the melting point lay in the range of 189 to 190 °C.

Compound `CC(=O)OCC1CC2c3cccc4c3C(CC2N(C)C1)CN4C(C)=O` (centres undefined) gave a melting point of 172 to 177 °C.

Take `O=C(O)CCCCC(=NOCc1ccc(OCc2noc(-c3ccccc3)n2)cc1)c1ccccc1`: the melting point lay in the range of 88 to 89 °C.

As for `CCCc1c(/C=C/c2ccccc2C)nc2ccc(C(=O)OC)cn2c1=O`, the melting point was 190 to 193 °C.

In turn, `CCc1nc2c(N)nc3cccnc3c2n1CC1(O)CCNCC1` registered a melting point of 232 to 233 °C.

For `COC(=O)CCCc1cc2cc(Cl)ccc2n1S(=O)(=O)c1ccc2c(c1)OCCN2C`, the melting point lay in the range of 139 to 140 °C.

`O=[N+]([O-])c1ccc(C2(Br)CCCCC2)cc1` displayed a melting point of 83.5 to 85.5 °C.

The compound `Cc1cc(-c2nncc3c(C(C)(C)C)c(OCc4ncn(C)n4)nn23)no1` showed a melting point of 161 to 164 °C.

Compound `CC(=O)CCCCCCC(=O)c1ccc(OCc2ccccc2)c(OCc2ccccc2)c1` came in with a melting point of 64 to 66 °C.

`Cc1cn(S(C)(=O)=O)c2c1C(=O)CC(c1cccs1)C2` (centres undefined) registered a melting point of 135 to 136 °C.

For the compound `CNC(=O)c1c(-c2ccccc2)noc1CC(=O)c1ccccn1`, the melting point is 146 to 149 °C.

In the case of `CCCC(=O)COS(=O)(=O)c1ccc(C)cc1`, the melting point lay within 33 to 35 °C.

For `O=C(O)c1ccccc1OCCN1CCC(c2cn(CCOc3ccc4c(c3)OCO4)c3ccccc23)CC1`, the melting point was in the range of 123 to 125 °C.

In turn, `CCc1cccc2ccc(C=O)c(OCOC)c12` returned a melting point of 41.5 to 42.5 °C.

Compound `Oc1ccc(-c2nnc(CCCCCCCc3ccccc3)o2)cc1` returned a melting point of 138 to 140 °C.

In the case of `CC(C)=CCn1ncc(-c2ccc(S(N)(=O)=O)c(F)c2)c(-c2ccc(F)cc2)c1=O`, the melting point lay in the range of 134 to 136 °C.

For `CCCc1nn2ncc(C(=O)OCC)c2n1Cc1ccc(-c2ccccc2-c2nc(=O)o[nH]2)cc1`, the melting point is 227 to 228 °C.

For the compound `CCCN(CCC)C(=O)CNc1nc(-c2ccccc2)ncc1[N+](=O)[O-]`, the melting point fell in the range of 142 to 143 °C.

Take `Cc1nc2sc([N+](=O)[O-])cc2c(=O)n1-c1ccc([N+](=O)[O-])cc1Cl`: the melting point lay within 166 to 168 °C.

Consider `CSC(=CC(=O)c1ccccc1Br)N1CCN2CCC1CC2`, for which the melting point lay in the range of 107 to 108 °C.

Compound `NC(=O)OC(=O)C(Cl)(Cl)Cl` displayed a melting point of 183 to 184 °C.

Compound `CSc1ccc(-c2csc(NC(C)=O)n2)cc1` showed a melting point of 235 to 236 °C.

Turning to `O=C(Nc1cccnc1NCC(O)c1ccccc1)c1ccc(Cl)cc1` (centres undefined), the melting point fell in the range of 157 to 159 °C.

Turning to `COCOc1cc(COc2nn(Cc3ccccc3)cc2C=O)ccc1OCc1nc(-c2ccco2)oc1C`, the melting point lay in the range of 141 to 142 °C.

On to `COc1cc(OC)c(C(C)=O)c(O)c1CC=C(C)C`, for which the melting point is 110 to 111 °C.

Consider `CC(C)(C)OC(=O)C(CN)CC(=O)N1CCNCC1` (centres undefined), for which the melting point worked out at 142 °C.

Turning to `O=C(Cn1nc2ccccc2n1)Nc1ccc(-n2nc(C(F)(F)F)cc2C2CC2)cc1`, the melting point was in the range of 188 to 192 °C.

Compound `COc1ccc(S(=O)(=O)Nc2c(Cl)cccc2Cl)c2c1[nH]c1ccccc12` returned a melting point of 201 to 205 °C.

`CCOC(=O)N1CCC(N2CCN(CC(=O)Nc3c(C)cccc3C)CC2)CC1Cc1ccc(Cl)c(Cl)c1` (centres undefined) registered a melting point of 101 °C.

`O=C1COc2ccc(C#Cc3ccccn3)cc2N1`: the melting point was 210 °C.

For the compound `COc1cc(C(=O)O)cc(OC)c1Cc1cnc(N)nc1N`, the melting point was 264 to 267 °C.

Compound `CC(=O)Nc1cc(NC(C)=O)cc([N+](=O)[O-])c1` registered a melting point of more than 290 °C.

In turn, `Oc1cc2ccccc2nc1O` had a melting point of 261 to 262 °C.

Turning to `Cc1cc(C=CC#N)cc(Oc2c(C(C)C)c(=O)[nH]c(=O)n2Cc2ccnc(N3C(=O)c4ccccc4C3=O)c2)c1`, the melting point is 229 to 231 °C.

In turn, `CCOC(=O)C1=CNC2=C(C(=O)OC)CCC(C)N2C1=O` (centres undefined) yielded a melting point of 136 to 139 °C.

`CCCSc1ccc(N)c(C(=O)O)c1`: the melting point was 91 to 93 °C.

`C(=C\c1nc2ccccc2n1-c1ccccn1)/c1ccco1` returned a melting point of 164 to 165 °C.

In turn, `COCCN1CCc2ccc(Nc3ncc(Cl)c(Nc4ccccc4S(=O)(=O)N4CCC(O)C4)n3)cc2CC1` (centres undefined) registered a melting point of 120 to 128 °C.

`CC(=O)Oc1ccc2c(=O)c(C#N)c(C)oc2c1` had a melting point of 140 to 141 °C.

With `COc1ccc(C(=O)C(C)(C)Br)c(Cl)c1Cl`, the melting point was in the range of 72 to 73 °C.

`Cc1nc(-c2ccc(C(F)(F)F)cc2)oc1CSc1ccc(CC(=O)O)cc1` returned a melting point of 135 to 136 °C.

`CN(C)C(=O)Nc1ccc(N2CCOCC2)cc1` gave a melting point of 199 to 204 °C.

On to `COc1cc(C=CC=O)cc(OC)c1OCc1ccccc1`, for which the melting point was in the range of 114 to 115 °C.

Consider `COc1ccc(-n2nc(NC(=O)N(C)C)cc2-c2ccc(OCCO)cc2)cc1`, for which the melting point lay in the range of 167 to 168 °C.

In turn, `CCCNC(=O)C1CC(=O)N(c2cc(C(F)(F)F)cc(C(F)(F)F)c2)C1` (centres undefined) showed a melting point of 152 to 154 °C.

Take `Cc1nc2c(N)nc3cc(OCCNC(=O)C(C)C)ccc3c2n1CC(C)C`: the melting point was 205 to 206 °C.

Regarding `Cc1cnc(Cn2ncc(-c3ccc(S(C)(=O)=O)cc3)c(-c3ccc(F)cc3)c2=O)s1`, the melting point was in the range of 114 to 116 °C.

For `Cn1c(=O)c(-c2c(Cl)cccc2Cl)cc2cnc(NCc3cccnc3)nc21`, the melting point fell in the range of 224 to 226 °C.

As to `C=CCc1cc2ccc(=O)oc2c(OC)c1OC(C)=O`, the melting point was 101 to 102 °C.

`O=C(O)c1cc(-c2ccccc2C(F)(F)F)nc(C(F)(F)F)c1` came in with a melting point of 155 to 157 °C.

The values above are taken from a melting point compilation (Tetko et al.; mined from patent text by program, amines drawn as free bases though some values may be those of a salt).
